Reference: US20140135272A1, “NOVEL ZINC FINGER-LIKE PEPTIDE COMPOSITIONS AS POTENT AGENTS IN CANCER PREVENTION AND TREATMENT” (priority 2011, published 2014)
Numbering of substitutions follows the chain as printed. Entries after “also recorded” stand apart in the source; their conditions may differ. Square brackets hold non-standard residues; d marks the D form. Ends that are not written are not given here. pS = N[C@@H](COP(=O)(O)O)C(=O)O

Legend:
Type in all cases: in vivo, nude mice
BCC cells [1] = assay: Example 2: peptide pre-injection plus boost injection, BCC cell inoculation, tumor volumes; conditions: peptide 2 mM, 100 μl i.v. per week for 3 weeks before BCC inoculation; boost per week for 3 weeks 2 months later; vs H2O control
Experimental: (§1) In the following examples, 8-week nude mice were used as host subjects to perform in vivo experiments. The nude mice were placed in room temperature and suitable humidity, and supplied with sterile water and standard food for 2 consecutive weeks before performing experiments. Then, the nude mice were injected with zinc finger-like peptide and tumor cells. The detailed processes for the experiments are described as follows.
(§2) First, manually synthesized zinc finger-like peptide (Genemed Synthesis Inc., San Antonio, Tex., USA) was resuspended in degassed purified water to obtain 1-5 mM of zinc finger-like peptide solution (100 μl). Herein, the solution for suspending the zinc finger-like peptide is not particularly limited. Preferably, the zinc finger-like peptide is resuspended in degassed purified water, in order to prevent the self-polymerization of the zinc finger-like peptide and loss its ability to inhibit tumor cell growth.
(§3) In the present experimental group, zinc finger-like peptide with sequence shown in SEQ ID NO: 1 was injected into nude mice.
Nude mice were injected with an intravenous injection of peptide (2 mM, 100 μl PBS) via tail veins per week for 3 consecutive weeks, followed by inoculating BCC cells (2 million cells/100 μl PBS) at both the right and left flanks. 2 months later, boost injection of peptide was carried out per week for 3 consecutive weeks. […]

[2] = system: breast carcinoma MDA-MB-435s; assay: Example 8: breast carcinoma MDA-MB-435s inoculated first, peptide treatment from the 70th day, tumor volumes; conditions: peptide 2 mM, 100 μl per week for 4 weeks from the 70th day
Experimental: as §1, §2
In the present experimental group, zinc finger-like peptide with sequence shown in SEQ ID NO: 2 was injected subcutaneously into nude mice.
Nude mice received an injection of breast carcinoma MDA-MB-435s (2 million cells/100 μl PBS) […] at both the right and left flanks on the […] day, followed by injecting peptide (2 mM, 100 μl) per week for 4 consecutive weeks from the 70th day. The tumor volumes (mm^3) were observed daily during the whole experiment.
The process of the present control group was the same as that of the experimental group, except that the zinc finger-like peptide of the experimental group was substituted with PBS buffer (100 μl) in the present control group.

[3] = system: basal cell carcinoma (BCC) cells; assay: Example 1: peptide pre-injection, then basal cell carcinoma (BCC) cell inoculation, tumor volumes; conditions: peptide 2 mM, 100 μl PBS i.v. tail vein per week for 3 weeks before BCC inoculation at both flanks; vs PBS control
Experimental: as §1, §2
Herein, zinc finger-like peptide with sequence shown in SEQ ID NO: 2 was injected into nude mice.
In particularly, nude mice were injected with an intravenous injection of peptide (2 mM, 100 μl phosphate-buffered saline or PBS) via tail veins per week for 3 consecutive weeks, followed by inoculating basal cell carcinoma (BCC) cells (2 million cells/100 μl PBS) at both the right and left flanks. […]

[4] = system: malignant melanoma B 16F10; assay: Example 4: peptide variants pre-injected, then malignant melanoma B16F10 inoculation, tumor volumes and death; conditions: peptide 2 mM, 100 μl i.v. per week for 2 weeks before B16F10 inoculation
Experimental: as §1, §2
Nude mice received an intravenous injection of peptide (2 mM, 100 μl) via tail veins per week for 2 consecutive weeks, followed by inoculating malignant melanoma B 16F10 (2 million cells/100 μl PBS) at both the right and left flanks. The tumor volumes (mm^3) were observed daily during the whole experiment.
as §3
In the present experimental group, zinc finger-like peptide with sequence shown in SEQ ID NO: 1, in which the fifth amino acid, serine was phosphorylated, and injected into nude mice.
In the present experimental group, zinc finger-like peptide with sequence shown in SEQ ID NO: 6 was injected into nude mice.
In the present experimental group, zinc finger-like peptide with sequence shown in SEQ ID NO: 6, in which the fourth amino acid serine was phosphorylated, and injected nude mice.
In the control group, H2O (100 μl) was injected into nude mice.

BCC cells [5] = assay: Example 5: expression plasmid injection, then BCC cell inoculation, tumor volumes; conditions: expression plasmid 100 μl via tail veins per week for 2 weeks before BCC inoculation; vs vector containing EGFP only
Experimental: as §1
The cDNA of zinc finger-like peptide was inserted into vector pCR3.1/CMV to form a zinc finger-like peptide expression plasmid, wherein the zinc finger-like peptide was connected to the c-terminal of EGFP.
In the present experimental group, the zinc finger-like peptide expression plasmid containing DNA sequence for expressing the zinc finger-like peptide (SEQ ID NO: 4) (100 μl) was injected into nude mice via tail veins per week for 2 consecutive weeks, to express zinc finger-like peptide. Then, BCC cells (2 million cells/100 μl medium) were inoculated into nude mice at both the right and left flanks. The tumor volumes (mm^3) were observed daily during the whole experiment.
The process of the present experimental group was the same as that of the experimental group 1, except that the DNA sequence shown in SEQ ID NO: 4 was substituted with DNA sequence shown in SEQ ID NO: 7. […]

MSSRRSSGCKYCEQD [SEQ ID NO: 5, zinc finger-like peptide with serine mutation]
tumor growth (tumor volumes) (BCC cells [1]): the therapeutic effect of the zinc finger-like peptide is decreased; also recorded: still has better treatment effect than H2O

MSSRRSSSCKYCEQDFRAHTQKNAATPFLAN [SEQ ID NO: 2, zinc finger-like peptide, manually synthesized]
day from which tumor volumes were significantly increased ([2]; MDA-MB-435s inoculated first): 89 days
maximum tumor volumes ([2]; observed on the 100th day): 1000 mm^3
tumor volumes reduced to ([2]; on the 113th day, after the maximum): 50%
tumor cell growth terminated compared to the control group ([2]; vs PBS control group): 75%
tumor growth (tumor volumes) [3]: inhibited the growth of skin cancer cell on nude mice

RSSSCK [SEQ ID NO: 6, zinc finger-like peptide, called cysteine deletion]
day on which the nude mice died [4]: 31 days

SEQ ID NO: 1, in which the fifth amino acid, serine was phosphorylated: SEQ ID NO: 1 (RRSSSCK) with the fifth amino acid, serine, phosphorylated (RRSS[pS]CK)
day on which the nude mice died [4]: 35 days

SEQ ID NO: 6, in which the fourth amino acid serine was phosphorylated: SEQ ID NO: 6 (RSSSCK) with the fourth amino acid serine phosphorylated (RSS[pS]CK)
day on which the nude mice died [4]: 35 days

B1: atgagcagca gaaggtcgtc ttcttgtaaa tattgtgaac aggacttccg agcacacaca cagaagaatg cggccacacc cttcctagcc aac (nucleic acid)
chain: ATGAGCAGCAGAAGGTCGTCTTCTTGTAAATATTGTGAACAGGACTTCCGAGCACACACACAGAAGAATGCGGCCACACCCTTCCTAGCCAAC
modifications: expressed or natural sequence
tumor growth (tumor volumes) (BCC cells [5]): the growth of tumor cells can be inhibited and the volume thereof can be reduced

B2: atgagcagca gaaggtcgtc tggctgtaaa tattgtgaac aggacttccg agcacacaca cagaagaatg cggccacacc cttcctagcc aac (nucleic acid)
chain: B1 chain with T22G, C23G, T24C
modifications: chemistry not given here
tumor growth (tumor volumes) (BCC cells [5]): can slightly inhibit the growth of the tumor cells
